Reference: patent US6844365B2, “Substances for use in treating psoriasis” (Laboratoire Medidom S.A., priority 2000, dated 2005)

Legend:
human keratinocytes = test: Viability of keratinocytes by trypan blue exclusion; type: cell-based; conditions: increasing doses, 24 and 96 hours, except 100 and 200 μM at 96 hours
Method: Human epidermal keratinocytes were obtained from foreskin by dispase II (5 mg/ml for 60 minutes at 37° C., Boehringer Mannheim, Germany) separation of epidermal sheets.
The epidermis was incubated in 0.25% trypsin/0.02% EDTA for 20 minutes a 37° C. and mechanically disaggregated.
The epidermal cell suspensions were plated (2.5×10^4/cm^2) on mytomicin C-treated 3T3-J2 cells (2.4×10^4/cm^2), ATCC, Rockville, Md., USA) and cultured in 5% CO2 humidified atmosphere in the keratinocyte growth medium: Dulbecco's modified Eagle's medium and Ham's F12 media (3:1 mixture, Biochrom KG, Berlin, Germany) containing fetal calf serum (10%, ICN Biomedicals, Aurora, Ohio), insulin ([…], Sigma, St.Louis, Mo., USA), transferrin ([…], Sigma), adenine (0.18 mM, Sigma), hydrocortisone ([…], Sigma), triiodothyronine (20 pM, Sigma), cholera toxin (0.1 nM, Sigma), epidermal growth factor (10 ng/ml, Sigma), 4 mM glutamine (Sigma), and penicillin/streptomycin (50 IU/ml, Biochrom.). […]
Cell viability was evaluated by trypan blue exclusion.
In order to understand the effects of diacerein on human keratinocytes, a possible alteration of vital parameters was evaluated by the trypan blue exclusion.

IL-1 = IL-1 release from keratinocytes by ELISA; type: cell-based, human
Method: (§1) UV-B radiation was delivered with a battery of lamps (TL 20W/12RS UV-B Philips Medical) before and after treatment with diacerein.
(§2) In other experiments, UVB irradiation was delivered only after diacerein addition.
(§3) Before irradiation, the cells were washed once with PBS and irradiated in presence of PBS.
(§4) Controls were sham irradiated for identical periods as measured by International Light Research Radiometer (Newburyport, Mass.).
(§5) Quantitation of cytokine levels was performed by a quantitative two-site enzyme immunoassay according to manufacturer's instructions, using ELISA kits for IL-1, IL-6, IL-8 and TNF-α.
(§6) The sample concentration was determined by absorbance at 450 nm with the correction wavelength set at 540 nm.
IL-1 is constitutively expressed in human keratinocytes. IL-1 release was measured after the addition of increasing doses of diacerein.

IL-6 = IL-6 release from keratinocytes by ELISA; type: cell-based, human
Method: as §1, §2, §3, §4, §5, §6
No constitutive levels of IL-6 are normally detected in human keratinocytes.
Therefore, IL-6 release was stimulated by UVB irradiation.

IL-8 = IL-8 release from keratinocytes by ELISA; type: cell-based, human
Method: as §1, §2, §3, §4, §5, §6
As TNF-α is a potent inducer of IL-8 in keratinocytes and plays an important role in the pathogenesis of psoriasis, the effect of diacerein on IL-8 was also evaluated after stimulating keratinocytes with TNF-α.

TNF-α = TNF-α release from keratinocytes by ELISA; type: cell-based, human; conditions: 24 hours after UVB irradiation
Method: as §1, §2, §3, §4, §5, §6
As mentioned above, TNF-α is of great relevance in the pathomechanisms of psoriasis. Therefore, we wanted to evaluate the effect of diacerein on the release of this cytokine from human keratinocytes.

[1] = tested on: patients with mild to moderate psoriatic arthritis; test: Clinical trial of Artrodar (diacerein) in psoriasis with mild to moderate psoriatic arthritis; type: in vivo, human; conditions: for Ritchie articular index, hip sx: baseline Ritchie 2
Method: The aim of this study was to assess the efficacy and safety of diacerein in the treatment of psoriasis with mild to moderate psoratic arthritis.
The investigational drug, Artrodar® (Laboratoire Medidom S. A. (Geneva)), is a size 1 hard gelatin capsule.
Ten patients satisfying all the inclusion and exclusion criteria indicated below were tested.
Male or female patients over 18 years of age with • cutaneous involvement defined by the psoriasis area and severity index (PASI) (<15); • persistent negative latex test or ELISA for rheumatoid factors; • established diagnosis of mild to moderate severity psoriatic arthritis of at least 3 months duration characterized by oligoarthritis (<4 involved joints) and/or spondyloarthritis; • normal values for haematology and clinical chemistry values (ESR 1 h<30 mm, WBC with leucocyte differential count, RBC, Hb ([…]), platelets, creatinine, transaminases, alkaline phosphatase, bilirubin); • normal or drug-controlled blood pressure values; • failure to respond to topical (including emollients and coal tar) and phototherapy; • evidence of medically approved contraceptive methods in women of childbearing age; • written informed consent from each patient;
Exclusion criteria: • patient under 18 years of age; • positive rheumatoid factor (RF) or antinuclear antibodies (ANA) >1:80; • history of inflammatory bowel disease or evidence of another rheumatologic disorder; • ascertained individual sensitivity to diacerein or any of the components in the capsule; • chronic illness that, in the opinion of the Investigator, would limit successful participation in the trial; • treatment with slow acting drugs and/or corticosteroids during the month prior to study start; • patient who, in the judgement of the Investigator, […]. Treatment
Treatment was 2×50 mg capsules of Artrodar® (each capsule contains 50 mg diacerein) taken orally per day for 6 months.
One capsule was to be taken in the afternoon after lunch while the other was to be taken in the evening after dinner.
No slow acting disease modifying drugs for psoriatic arthritis or corticosteroids were allowed during one month prior to the start of the study and throughout the study.
Treatment with NSAIDs, analgesics and other drugs was kept constant during the study and the doses used were recorded every week.
The following were assessed at baseline and at regular intervals during the study: • The PASI index (Fredriksson and Petterson, 1978)^i for assessing cutaneous involvement. • Pain on activity (target joint) assessed using the VAS. • Ritchie articular index.
All adverse events either observed by the Investigator or reported by […] were recorded.

[2] = tested on: cytokines of the IL-1 family, especially IL-1β; conditions: prior knowledge; cited from earlier work
IL-6, TNF-α and LIF = conditions: prior knowledge; cited from earlier work
[3] = cited from earlier work
prostaglandin PGE2 = conditions: cited from earlier work
[4] = of 7 patients, 2×50 mg orally per day
[5] = patient one, 2nd visit, improved from Ritchie 1
[6] = patient three, 2nd visit, improved from Ritchie 2

CC(=O)Oc1cccc2c1C(=O)c1c(OC(C)=O)cc(C(=O)O)cc1C2=O [diacerein, 4,5-bis(acetyloxy)-9,10-dihydro-9,10-dioxo-2-anthracene carboxylic acid]
alteration of keratinocyte viability (human keratinocytes): did not cause any significant alteration
effect on UVB-induced increase in IL-1 release (IL-1; 24 hours after UVB irradiation): prevented this effect
dose down-regulating IL-1 release almost to baseline levels (IL-1; UVB-irradiated keratinocytes): 0.1 µM
effect of timing of administration on IL-1 release (IL-1; before versus after UVB irradiation): more powerful when administered before UVB irradiation
effect on constitutive levels of IL-1 (IL-1; normal conditions, no UVB): did not affect
effect on UVB-induced IL-6 release (IL-6; 24 hours after irradiation): caused a reduction
effect of timing of addition on IL-6 release (IL-6; UVB-irradiated keratinocytes): significantly more effective when added both before and after UVB light
dose giving significant reduction in IL-6 release (IL-6; added both before and after UVB): 1 µM
dose necessary for down regulation of IL-6 (IL-6; administered only before UVB): 5 µM
effect on IL-6 levels (IL-6; basic conditions, no UVB): did not affect
doses with significant reduction of UVB-induced IL-8 levels (IL-8; 24 hours after UVB irradiation): 5 to 100 µM
effect of timing of addition on IL-8 release (IL-8; UVB-irradiated keratinocytes): more effective when given both before and after UVB irradiation
doses down-regulating TNF-α-induced IL-8 release (IL-8; keratinocytes stimulated with TNF-α, 24 hours): 50 to 200 µM
effect on IL-8 (IL-8; normal conditions, no stimulus): unaffected
doses down-regulating UVB-induced TNF-α release (TNF-α): 50 to 200 µM
adverse effect reported ([1]; all treated patients, caused drop-out): diarrhea in one patient
number of patients who responded after 1 month [1, 4]: 4 patients
number of patients who responded after 2 months [1, 4]: 2 patients
number of patients who responded after 3 months [1, 4]: 1 patients
psoriasis status ([1]; patient five, 2nd visit Jul. 14, 2000, 1 month treatment, baseline PASI 10.1): Psoriasis: status unchanged.
Pain on VAS ([1]; patient five, 2nd visit, baseline 60 mm): Pain on VAS = 50 mm
Ritchie articular index, knee pain (bilateral) ([1]; patient five, 2nd visit, baseline Ritchie 1): had knee pain (bilateral) (Ritchie 1).
Responder ([1]; patient five, treatment period only 1 month): No as
Responder ([1]; patient four): Yes
PASI score ([1]; patient four, 2nd visit Jul. 13, 2000, baseline 13.6): PASI score = 6.7
Pain on VAS ([1]; patient four, 2nd visit, baseline 50 mm): Pain on VAS = 50 mm.
Ritchie articular index, shoulder sx ([1]; patient four, 2nd visit, baseline Ritchie 1): Shoulder sx: Unchanged
Ritchie articular index, hip sx ([1]; patient four, 2nd visit): Hip sx: Unchanged
Ritchie articular index, TMC dx ([1]; patient four, 2nd visit, improved from Ritchie 1): TMC dx: Improved from Ritchie 1 to 0
PASI score ([1]; patient four, 3rd visit Aug. 30, 2000, baseline 13.6): PASI score = 2.2
Pain on VAS ([1]; patient four, 3rd visit, baseline 50 mm): Pain on VAS = 50 mm.
Ritchie articular index, shoulder sx ([1]; patient four, 3rd visit, baseline Ritchie 1): Shoulder sx: Unchanged
Ritchie articular index, hip sx ([1]; patient four, 3rd visit): Hip sx: Unchanged
Ritchie articular index, TMC dx ([1]; patient four, 3rd visit, improved from Ritchie 1): TMC dx: Improved from Ritchie 1 to 0
Responder ([1]; patient one (stopped after 4 weeks)): Yes
PASI score ([1]; patient one, 2nd visit Aug. 18, 2000, after stopping treatment in mid-July and mild return, baseline 4.8): PASI score = 2.4
Ritchie articular index, TMC sx [1, 5]: TMC sx improved from Ritchie 1 to 0
Ritchie articular index, shoulder sx [1, 5]: Shoulder sx: improved from Ritchie 1 to 0
Ritchie articular index, tibiotarsal joint sx ([1]; patient one, 2nd visit, improved from Ritchie 2): Tibiotarsal joint sx: improved from Ritchie 2 to 0.
Responder ([1]; patient seven): Yes
PASI score ([1]; patient seven, 2nd visit Jun. 6, 2000, baseline 9.6): PASI score = 6.6
Pain on the VAS ([1]; patient seven, 2nd visit, baseline 60 mm): Pain on the VAS = 50 mm.
PASI score ([1]; patient seven, 3rd visit Jul. 3, 2000, baseline 9.6): PASI = score 5.0
Pain on the VAS ([1]; patient seven, 3rd visit, baseline 60 mm): Joint swelling decreased in all joints. Pain on the VAS = 40 mm.
PASI score ([1]; patient seven, 4th visit Aug. 18, 2000, baseline 9.6): PASI score = 0.9
Responder ([1]; patient six): Yes
psoriasis status ([1]; patient six, 2nd visit, after 2 months treatment, baseline PASI 8.1): disappeared in June.
PASI score ([1]; patient six, 3rd visit Jul. 19, 2000 (psoriasis reappeared), baseline 8.1): PASI score = 3.9
Ritchie articular index, right knee ([1]; patient six, 4th visit, baseline Ritchie 3): 0
Pain on the VAS ([1]; patient six, right knee, 3rd visit, baseline 50 mm): VAS = 50 mm.
pain (VAS) ([1]; patient six, right knee, 4th visit Aug. 29, 2000, baseline 50 mm): 1 cm
Responder ([1]; patient three): Yes
PASI score ([1]; patient three, 2nd visit Jul. 20, 2000, baseline 6.9): PASI score = 6.9
Ritchie articular index, wrist dx [1, 6]: Wrist dx: improved from Ritchie 2 to 1.
Ritchie articular index, wrist sx [1, 6]: Wrist sx: improved from Ritchie 2 to 0
Ritchie articular index, wrist sx ([1]; patient three, 3rd visit): Wrist sx: Ritchie 0
Morning stiffness ([1]; patient three, 3rd visit Aug. 24, 2000): Morning stiffness = 30 minutes.
PASI score ([1]; patient three, 3rd visit Aug. 24, 2000, baseline 6.9): PASI score = 3.9
Ritchie articular index, wrist dx ([1]; patient three, 3rd visit, improved from Ritchie 1): Arthritis: Wrist dx: improved from Ritchie 1 to 0.
Responder ([1]; patient two (stopped after 1 month, diarrhea)): Yes
PASI score ([1]; patient two, 2nd visit Jul. 20, 2000, baseline 0.6): PASI score = 0.1
Ritchie articular index, 2nd MCF dx ([1]; patient two, 2nd visit, printed as improved from Ritchie 1, baseline Ritchie 2): Arthritis: 2nd MCF, dx, improved from Ritchie 1 to Ritchie 0.
patients who responded to treatment (improvement on PASI score) ([1]; seven patients who took Diacerein one month or more, 2×50 mg capsules orally per day): 100%
effect on synthesis and activity of pro-inflammatory catabolic cytokines of the IL-1 family, especially IL-1β [2]: inhibit the synthesis and activity
effect on IL-6 and other cytokines such as TNF-α and LIF (IL-6, TNF-α and LIF): inhibit IL-6 and other cytokines such as TNF-α and LIF
carcinogenic potential ([3]; extensive toxicology studies): does not show carcinogenic potential
tolerability ([3]; prior use in osteoarthritis and rheumatoid arthritis, toxicology studies): well tolerated
gastrotoxic potential (prostaglandin PGE2; inferred from no effect on PGE2 production): does not have gastrotoxic potential
effect on prostaglandin PGE2 production (prostaglandin PGE2; prior knowledge): not to effect prostaglandin PGE2 production
